Measurements published in US20180126014A1, “COMPOSITIONS FOR ENHANCING DELIVERY OF AGENTS ACROSS THE BLOOD BRAIN BARRIER AND METHODS OF USE THEREOF” (Yale University, priority 2015, published 2018).

What was measured:
[1] = tested on: intracranial GL261 tumors; conditions: NPs co-loaded with IR780 and BBB modulator, three consecutive days, imaged 24 h after last injection
Method: For the intracranial GL261 tumor implantation, 5-6 week old female C57BL6 mice were anesthetized via intraperitoneal injection of ketamine hydrochloride (75 mg/kg, Abbot Laboratories) and xylazine (7.5 mg/kg, Phoenix Pharmaceutical) in sterile saline. Twenty thousand GL261 cells in 2 μL of PBS were injected into the right striatum (1.8 mm lateral to the bregma and 3 mm of depth) using a stereotactic fixation device with mouse adaptor. For the subcutaneous GL261 xenograft model, 1×10^6 GL261 cells in 100 μL of PBS were inoculated subcutaneously into the right flank region of female C57BL6 mice. For the intracranial U87-MG glioma model, 1×10^6 U87-MG cells in 2 μL of PBS was injected into the right striatum of BALB/c nude mice using the same procedures.
(§1) Then the hair on the head was shaved and mice were anesthetized and imaged using the IVIS fluorescence imaging system on day 20. Finally, mice were sacrificed and organs resected for further imaging.
At 24 h after the last injection, the hair on the head was shaved and mice were anesthetized and imaged using an IVIS imaging system (Xenogen). Finally, mice were sacrificed and organs resected for further imaging. The fluorescence signal intensity of excised organs was quantified using Living Image 3.0.
as §1

A2B adenosine receptor = molecular target: T1, A2B adenosine receptor (Homo sapiens, UniProt P29275); conditions: cited from earlier work
T1 sequence (P29275 1-332): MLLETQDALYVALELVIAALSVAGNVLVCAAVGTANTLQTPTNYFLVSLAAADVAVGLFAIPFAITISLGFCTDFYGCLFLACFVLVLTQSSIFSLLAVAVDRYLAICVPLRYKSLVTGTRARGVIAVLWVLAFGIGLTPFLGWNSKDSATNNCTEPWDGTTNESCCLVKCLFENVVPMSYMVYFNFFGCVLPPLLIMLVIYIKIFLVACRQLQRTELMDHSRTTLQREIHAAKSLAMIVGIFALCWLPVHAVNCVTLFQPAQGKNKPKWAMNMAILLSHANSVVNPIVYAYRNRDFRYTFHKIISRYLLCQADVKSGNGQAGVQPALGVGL

A1 adenosine receptor = molecular target: T2, A1 adenosine receptor (Homo sapiens, UniProt P30542); conditions: cited from earlier work
T2 sequence (P30542 1-326): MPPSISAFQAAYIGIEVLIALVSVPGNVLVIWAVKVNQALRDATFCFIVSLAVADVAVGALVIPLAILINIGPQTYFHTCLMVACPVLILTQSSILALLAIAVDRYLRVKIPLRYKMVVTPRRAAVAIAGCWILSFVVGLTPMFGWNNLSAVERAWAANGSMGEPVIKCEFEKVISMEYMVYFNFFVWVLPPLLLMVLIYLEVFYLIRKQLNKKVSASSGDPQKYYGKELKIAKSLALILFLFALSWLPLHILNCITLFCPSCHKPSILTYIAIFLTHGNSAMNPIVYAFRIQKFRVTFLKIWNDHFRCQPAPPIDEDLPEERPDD

A3 adenosine receptor = molecular target: T3, A3 adenosine receptor (Homo sapiens, UniProt P0DMS8); conditions: cited from earlier work
T3 sequence (P0DMS8 1-318): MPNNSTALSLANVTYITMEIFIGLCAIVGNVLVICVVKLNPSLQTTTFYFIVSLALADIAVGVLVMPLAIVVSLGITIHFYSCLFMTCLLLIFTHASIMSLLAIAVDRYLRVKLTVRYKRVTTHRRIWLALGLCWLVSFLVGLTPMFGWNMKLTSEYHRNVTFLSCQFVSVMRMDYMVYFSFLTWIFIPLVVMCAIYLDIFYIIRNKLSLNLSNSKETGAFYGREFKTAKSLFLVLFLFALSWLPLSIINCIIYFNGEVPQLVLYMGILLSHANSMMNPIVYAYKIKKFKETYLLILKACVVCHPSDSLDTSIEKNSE

[2] = tested on: MDA-MB-231Br brain metastases; assay: Paclitaxel-loaded ABTT NPs in MDA-MB-231Br derived brain metastasis model; assay type: in vivo, mice; conditions: three times a week for three weeks
Method: Nanoparticles were prepared similarly to those described above for Examples 1 and 6, but including the CTX targeting moiety as described in Example 6. […] Briefly, for synthesis of paclitaxel-loaded NPs, 100 mg mIII-62% in 2 mL DCM containing 2.5 mg LEXISCAN® and 20 mg paclitaxel was added dropwise to 4 mL 2.5% PVA under vortex and sonicated to form a oil/water emulsion. The emulsion was poured into a beaker containing 0.3% PVA and stirred for 3 h to evaporate DCM. NPs were collected by centrifugation at 20000 rpm for 30 min. The precipitate was suspended in PBS and reacted with thiolated CTX […] at room temperature. Nanoparticles were collected, suspended in H2O and lyophilized for storage and characterization.
In both studies, mice were treated with nanoparticles for three times a week for three weeks at a dose of 2 mg/mouse. It is believed that enhanced efficacy can be achieved with a higher dose treatment (maximum tolerated dose >15 mg per treatment) or with extended treatment time.

With `CCNC(=O)[C@H]1O[C@@H](n2cnc3c(N)ncnc32)[C@H](O)[C@@H]1O` [NECA, 1-(6-Amino-9H-purin-9-yl)-1-deoxy-N-ethyl-β-D-ribofuranuronamide] the “delivery of CTX-mHph2-III-62% NPs to the brain with encapsulated BBB modulator” value (shortened to “delivery of CTX-mHph2-III-62% NPs”) [1] was “significantly enhanced delivery”.

For `CNC(=O)c1cnn(-c2nc(N)c3ncn([C@@H]4O[C@H](CO)[C@@H](O)[C@H]4O)c3n2)c1` [Regadenoson, 2-{4-[(methylamino)carbonyl]-1H-pyrazol-1-yl}adenosine], the affinity (A2B adenosine receptor) is given as “weak, if any”, the “delivery of CTX-mHph2-III-62% NPs” value [1] is given as “significantly enhanced delivery” and the Ki (A1 adenosine receptor) is given as greater than 16.5 µM. The “lower affinity for the A1 adenosine receptor than for A2A” value (A1 adenosine receptor) was “at least 10 fold” and the affinity (A3 adenosine receptor) was “weak, if any”.

With `CC(=O)O[C@H]1C(=O)[C@@]2(C)[C@H]([C@H](OC(=O)c3ccccc3)[C@]3(O)C[C@H](OC(=O)[C@H](O)[C@@H](NC(=O)c4ccccc4)c4ccccc4)C(C)=C1C3(C)C)[C@]1(OC(C)=O)CO[C@@H]1C[C@@H]2O` [free paclitaxel, paclitaxel] the median survival time [2] was 45 days.

In the case of `Nc1cc(N2CCCCC2)nc(N)[n+]1[O-]` [minoxidil], the “delivery of CTX-mHph2-III-62% NPs” value [1] is reported as “significantly enhanced delivery”.
